Test results published in article PMC8080777, “Discovery, optimization, and evaluation of non-bile acid FXR/TGR5 dual agonists” (Scientific Reports, 2021).

Biological target: T1, FXR (Homo sapiens, UniProt Q96RI1)
T1 construct: host or cells: CHO cells
T1 sequence (Q96RI1 1-486): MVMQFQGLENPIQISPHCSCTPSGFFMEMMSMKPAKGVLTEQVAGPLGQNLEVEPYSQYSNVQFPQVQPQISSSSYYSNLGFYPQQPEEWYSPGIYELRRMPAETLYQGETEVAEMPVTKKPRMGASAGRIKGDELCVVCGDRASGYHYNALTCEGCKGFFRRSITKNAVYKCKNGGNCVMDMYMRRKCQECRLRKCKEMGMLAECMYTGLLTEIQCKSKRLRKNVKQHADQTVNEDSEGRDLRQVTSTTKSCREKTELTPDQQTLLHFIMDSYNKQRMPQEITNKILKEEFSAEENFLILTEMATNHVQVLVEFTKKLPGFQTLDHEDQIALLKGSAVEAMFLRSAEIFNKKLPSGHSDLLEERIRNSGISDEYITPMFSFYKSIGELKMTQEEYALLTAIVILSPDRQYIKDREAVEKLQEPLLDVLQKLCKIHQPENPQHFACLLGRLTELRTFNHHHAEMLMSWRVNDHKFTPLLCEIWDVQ
Assay: CHO cell-based FXR luciferase reporter assay (Indigo Biosciences)
Conditions: for EC50: 4 parameter logistic fit; for Emax: CHO

| FXR Efficacy (%) (0.1 µM) (% vs OCA 1 µM as 100%) | FXR Efficacy (%) (1 µM) (% vs OCA 1 µM as 100%) | FXR Efficacy (%) (10 µM) (10 µM, % vs OCA 1 µM as 100%) | FXR agonist activity (in words) | EC50 | Emax | Structure (SMILES) |
| --- | --- | --- | --- | --- | --- | --- |
| 12.8% | 96.6% | 130.9% | – | – | – | COC(=O)/C=C/c1cccc(N(Cc2ccc(-c3ccc(N(C)C)cc3)cc2)C(=O)C2CCCCC2)c1 [Compound 7, Fexaramine, reference compound] |
| 57.1% | 98.8% | – | strong dual agonist potencies | 190 nM | 28% | COc1cc(Cl)cc(N(CC23CCC(c4ccc(OC)c(C#N)c4)(CC2)CC3)C(=O)c2ccncc2C)c1 [Compound 20p] |
| 85.7% | 79.6% | – | strong dual agonist potencies | 79 nM | 33% | COc1ccc(C23CCC(CN(C(=O)c4ccncc4C)c4cc(Cl)cc(Cl)c4)(CC2)CC3)cc1C#N [Compound 20q] |
